Source: US20240165114A1, “TREATMENT OF DIABETIC NEPHROPATHY WITH AN sGC STIMULATOR” (Cyclerion Therapeutics, Inc., priority 2019, published 2024)

Assays:
[1] = test system: adult patients with type 2 diabetes mellitus with albuminuria; assay: Phase 2 study: serum cholesterol; type: in vivo, human; conditions: for Serum Cholesterol: Between PRL and PBO Group LS Mean Change from Baseline at week 12 / Serum Cholesterol: Within Group LS Mean Change from Baseline at Week 12: ITT; for Cholesterol: Placebo-Adjusted LS Mean Change from Baseline at Week 12 / Cholesterol: Within Group LS Mean Change from Baseline at Week 12: mITT Population
Description: (§1) Other secondary objectives of this clinical study included the evaluation of the pharmacokinetic (PK) concentrations of oral IW-1973 and the exploration of the effect of oral IW-1973 on hemodynamics and metabolic effects when administered daily for approximately 12 weeks to adult patients with type 2 diabetes mellitus with albuminuria (i.e., DN patients) who were on a stable regimen of renin-angiotensin system inhibitors (RAAS inhibitors, i.e., ACEi's and ARBs).
(§2) Clinical laboratory assessments obtained during the performance of this clinical trial included: complete blood count, serum chemistry panel, urinalysis, coagulation panel, estimated glomerular filtration rate (eGFR; determined by the Chronic Kidney Disease Epidemiology Collaboration [CKD-EPI] creatinine equation), hemoglobin A1c (HbA1C), Homeostatic Model Assessment to estimate insulin resistance (HOMA-IR), platelet function assessment (using VerifyNow®, at a subset of sites), urine pregnancy, and screens for hepatitis, human immunodeficiency virus, and drugs of abuse.
(§3) This multicenter, randomized, double-blind, placebo-controlled, parallel-group study evaluated 2 dose levels of IW-1973 compared with placebo. The study population consisted of adult patients with type 2 diabetes mellitus, albuminuria, and impaired renal function. Patients had to have been taking antihyperglycemic medications for at least 12 weeks with their regimen being stable (ie, drug and dose) for at least 28 days before the Randomization Visit. Additionally, patients had to have been on a stable regimen of angiotensin-converting enzyme inhibitor (ACEi) or an angiotensin receptor blocker (ARB), for at least 28 days before the Randomization Visit. For more details, see Inclusion Criteria below. A total of 156 patients (approximately 50 patients per arm) were stratified by baseline estimated glomerular filtration rate (eGFR) into three groups: eGFR 30 to 45, >45 to 60, and >60 to 75 mL/min/1.73 m^2) and randomized approximately 1:1:1 to total daily 20 mg IW-1973, 40 mg IW-1973, or placebo.

[2] = test system: adult patients with type 2 diabetes mellitus with albuminuria; assay: Phase 2 study: hemoglobin A1c; type: in vivo, human; conditions: for Hemoglobin A1c: Between PRL and PBO Group LS Mean Change from Baseline at week 12 / Hemoglobin A1c: Within Group LS Mean Change from Baseline at Week 12: ITT
Description: as §1, §2, §3

## OC(CNc1nc(-c2cc(-c3ccon3)n(Cc3ccccc3F)n2)ncc1F)(C(F)(F)F)C(F)(F)F [Compound I, praliciguat]
[1]; PRL 20 mg
  Serum Cholesterol: Between PRL and PBO Group LS Mean Change from Baseline at week 12: -12.1 mg/dL
  Serum Cholesterol: Within Group LS Mean Change from Baseline at Week 12: -7.8 mg/dL
  Cholesterol: Placebo-Adjusted LS Mean Change from Baseline at Week 12: -13.1 mg/dL
  Cholesterol: Within Group LS Mean Change from Baseline at Week 12: -10.6 mg/dL
[1]; PRL 40 mg
  Serum Cholesterol: Between PRL and PBO Group LS Mean Change from Baseline at week 12: -8.1 mg/dL
  Serum Cholesterol: Within Group LS Mean Change from Baseline at Week 12: -3.7 mg/dL
  Cholesterol: Placebo-Adjusted LS Mean Change from Baseline at Week 12: -7.5 mg/dL
  Cholesterol: Within Group LS Mean Change from Baseline at Week 12: -4.8 mg/dL
[1]; PRL Combined
  Serum Cholesterol: Between PRL and PBO Group LS Mean Change from Baseline at week 12: -10.1 mg/dL
  Serum Cholesterol: Within Group LS Mean Change from Baseline at Week 12: -5.8 mg/dL
  Cholesterol: Placebo-Adjusted LS Mean Change from Baseline at Week 12: -10.2 mg/dL
  Cholesterol: Within Group LS Mean Change from Baseline at Week 12: -7.7 mg/dL
[2]; 12 weeks of treatment
  decrease in mean HbA1c levels compared to placebo: ~0.3%
[2]; PRL 20 mg
  Hemoglobin A1c: Between PRL and PBO Group LS Mean Change from Baseline at week 12: −0.23%
  Hemoglobin A1c: Within Group LS Mean Change from Baseline at Week 12: −0.26%
[2]; PRL 40 mg
  Hemoglobin A1c: Between PRL and PBO Group LS Mean Change from Baseline at week 12: −0.30%
  Hemoglobin A1c: Within Group LS Mean Change from Baseline at Week 12: −0.38%
[2]; PRL Combined
  Hemoglobin A1c: Between PRL and PBO Group LS Mean Change from Baseline at week 12: −0.27%
  Hemoglobin A1c: Within Group LS Mean Change from Baseline at Week 12: −0.34%
